Experimental data taken from patent US20150204836A1, “SOLUBLE METAL SENSOR COMPOUNDS AND METHODS FOR MAKING AND USING THE SAME” (UNIVERSITY OF UTAH RESEARHC FOUNDATION, priority 2012, published 2015).
Converted amounts (≈) assume the structure as drawn.

How the values were obtained:
[1] = Temperature effect on fluorescence quenching by Hg^2+; settings: one point assay, 1.0 μM Compound 1, 2.0 μM Hg^2+, 596 nm, varying temperatures
Description: New sensors could be used to test water sources in quite different locations, at different seasons, and from diverse water sources.

[2] = Storage stability of metal sensor solution in HDPE/LDPE squeeze bottles; format: physicochemical; settings: 7.4 μM in 50% glycerol-water, on shelf in room and outside in shade
Description: High density polyethylene (HDPE) and low density polyethylene (LDPE) squeeze bottles were used to store metal sensor solutions (7.4 μM Compound 1). One pair of HDPE and LDPE bottles was stored on shelf in room, and the other pair of bottles was stored outside in shade. Compound 1 is very stable in 50% glycerol-water without obvious change of absorbance and fluorescence spectra at least for 6 weeks.

[3] = Linear fluorescence detection response and detection limit for Hg^2+; settings: 0.3 μM of Compound 1; corresponding to a 1% decrease of fluorescence intensity
Description: Linear detection response for Hg^2+ was determined/established for several concentrations of Compound 1. A linear detection response of Hg^2+ in the range 0 to 18 ppb for 0.3 μM of Compound 1 and a detection limit of 0.4 ppb for Hg^2+, corresponding to a 1% decrease of fluorescence intensity was determined (FIG. 2A).

[4] = Spectral properties (absorbance, extinction coefficient, emission) in various solvents; format: physicochemical
[5] = Solubility in various solvents; format: physicochemical
Description: Compound 1 is a dark red color solid with solubility in water about 30 μM, much higher than detection concentration (0.3˜5 μM) that is commonly used in fluorometer or portable detector. Various solvents have been tested in the following table. For transferring Compound 1 as aliquots, ethanol-dichloromethane (DCM) (5:1) is a good solvent giving good solubility and easy evaporation of solvent.

[6] = pH tuning study, selectivity for Hg^2+ over 11 other metal ions (fluorescence quenching); settings: 1.0 μM Compound 1, 11 metal ions each 5 μM, 2.0 μM Hg^2+, pH 4, 5, 6, 7
Description: The selectivity of the sensor Compound 1 for Hg^2+ over environmentally relevant alkali, alkaline earth and transition metal ions (K^+, […], Mg^2+, Ca^2+, Ba^2+, Zn^2+, Fe^2+, Ni^2+, Cd^2+, Pb^2+, Cu^2+) was investigated in different pH solution pH=4, 5, NaOAc 0.02M buffer, pH=6, PBS 0.02M buffer, pH 7 water (panel A pH 4.0, panel B pH 5.0, panel C pH 6.0, panel D pH 7.0). Fluorescence spectra of a 1.0 μM Compound 1 solution in the absence (A line) and presence (B line) of a mixture of all 11 metal ions (each 5 μM).

Cc1cn([C@@H]2C[C@@H](O)[C@H](CNC(=O)CCN3C(=O)c4cc(Oc5cccnc5)c5c6c(Oc7cccnc7)cc7c8c(cc(Oc9cccnc9)c(c9c(Oc%10cccnc%10)cc(c4c59)C3=O)c86)C(=O)N(CCC(=O)NC[C@H]3O[C@@H](n4cc(C)c(=O)[nH]c4=O)C[C@@H]3O)C7=O)O2)c(=O)[nH]c1=O [Compound 1, N-(((2R,3S,5R)-3-hydroxy-5-(5-methyl-2,4-dioxo-3,4-dihydropyrimidin-1(2H)-yl)tetrahydrofuran-2-yl)methyl)-3-(9-(3-((((2S,3R,5S)-3-hydroxy-5-(5-methyl-2,4-dioxo-3,4-dihydropyrimidin-1(2H)-yl)tetrahydrofuran-2-yl)methyl)amino)-3-oxopropyl)-1,3,8,10-tetraoxo-5,6,12,13-tetrakis(pyridin-3-yloxy)-9,10-dihydroanthra[2,1,9-def:6,5,10-d′e′f′]diisoquinolin-2(1H,3H,8H)-yl)propanamide]
temperature effect on quenching efficiency [1]: small, but potentially significant, effect | stable without obvious change of absorbance and fluorescence spectra [2]: ≥ 6 weeks | detection limit for Hg^2+ [3]: 0.4 ppb | ε (extinction coefficient) ([4]; 15% Glycerol-H2O): 15000 M⁻¹ cm⁻¹ | λmax,abs ([4]; 15% Glycerol-H2O): 564 nm | λmax,flu ([4]; 15% Glycerol-H2O): 598 nm | ε (extinction coefficient) ([4]; 30% Glycerol-H2O): 16970 M⁻¹ cm⁻¹ | λmax,abs ([4]; 30% Glycerol-H2O): 566 nm | λmax,flu ([4]; 30% Glycerol-H2O): 598 nm | ε (extinction coefficient) ([4]; 50% Glycerol-H2O): 16330 M⁻¹ cm⁻¹ | λmax,abs ([4]; 50% Glycerol-H2O): 565 nm | λmax,flu ([4]; 50% Glycerol-H2O): 598 nm | ε (extinction coefficient) ([4]; DMF-H2O (7:3)): 18900 M⁻¹ cm⁻¹ | λmax,abs ([4]; DMF-H2O (7:3)): 561 nm | λmax,flu ([4]; DMF-H2O (7:3)): 595 nm | ε (extinction coefficient) ([4]; Ethanol): 12830 M⁻¹ cm⁻¹ | λmax,abs ([4]; Ethanol): 557 nm | λmax,flu ([4]; Ethanol): 594 nm | ε (extinction coefficient) ([4]; Ethanol-DCM (5:1)): 16000 M⁻¹ cm⁻¹ | λmax,abs ([4]; Ethanol-DCM (5:1)): 558 nm | λmax,flu ([4]; Ethanol-DCM (5:1)): 595 nm | ε (extinction coefficient) ([4]; H2O): 12375 M⁻¹ cm⁻¹ | λmax,abs ([4]; H2O): 563 nm | λmax,flu ([4]; H2O): 595 nm | ε (extinction coefficient) ([4]; Isopropanol): 15200 M⁻¹ cm⁻¹ | λmax,abs ([4]; Isopropanol): 561 nm | λmax,flu ([4]; Isopropanol): 594 nm | solubility ([5]; 15% glycerol in water, aqueous with cosolvent or surfactant or cyclodextrin, 15% Glycerol-H2O): ~50 µM (≈ 67.7 µg/mL) | solubility ([5]; 30% glycerol in water, aqueous with cosolvent or surfactant or cyclodextrin, 30% Glycerol-H2O): > 86 µM | solubility ([5]; 30% propylene glycol in water, aqueous with cosolvent or surfactant or cyclodextrin, 30% Propylene glycol-H2O): > 86 µM | solubility ([5]; 50% glycerol in water, aqueous with cosolvent or surfactant or cyclodextrin, 50% Glycerol-H2O): > 86 µM | solubility ([5]; 50% propylene glycol in water, aqueous with cosolvent or surfactant or cyclodextrin, 50% Propylene glycol-H2O): > 86 µM | solubility ([5]; DMF, organic solvent or mixture): > 200 µM | solubility ([5]; DMF-water (7:3), organic solvent or mixture, DMF-H2O (7:3)): > 200 µM | solubility ([5]; ethanol, organic solvent or mixture): ~100 µM (≈ 135 µg/mL) | solubility ([5]; ethanol-dichloromethane (5:1), organic solvent or mixture, Ethanol-DCM (5:1)): > 342 µM | solubility ([5]; isopropanol, organic solvent or mixture): > 86 µM | solubility ([5]; water): ~30 µM (≈ 40.6 µg/mL) | fluorescence response on addition of Hg^2+ to mixture of 11 metal ions [6]: fluorescence quenching
